Source: US5705524A, “Thiepane compounds” (Gilead Sciences, Inc., priority 1995, dated 1998)
Like-named read-outs stand apart in the source and are kept apart here.

How the values were obtained:
HIV protease = molecular target: T1, HIV protease (Human immunodeficiency virus type 1 group M subtype B, UniProt P04585); assay: biochemical
T1 construct: measurement of HIV-protease (HIV-PR) activity
Experimental: Compositions to be subjected to enzyme assay are lyophilited and diluted in DMSO to 100-1000 μM. Compositions having apparent IC50 <1 μm are diluted to 100 μM.
The assay is a fluorometric method for measurement of HIV-protease (HIV-PR) activity utilizing a synthetic peptide substrate for HIV-PR based on that described by Matayoshi, E. D.; Wang, G. T.; Krafft, G. A.; and Erickson, J. W.; Science, 1990, 247, 954-958; and Wang, G. T.; Huffker, J. A.; Matayoshi, E.; and Krafft, G. A.; Tetrahedron Lett., 1990, 165, 6493-6496.
1.0 mM ethylenediaminetetraacetic acid (EDTA)
1.0 mM dithiothreitol (DTT)
10% dimethyl sulfoxide (DMSO)
1 mg/mL bovine serum albumin (BSA) adjusted to pH 4.7
1. Prepare a solution of 2 μM HIV Protease Substrate 1 in the Assay Buffer.
2. Dispense the substrate solution into UV-pass fluorescence cuvettes (1 cm pathlength).
3. Set the excitation and emission monochromators of the spectrofluorimeter to 340 nm and 490 nm, respectively. To obtain the same kinetic constants as reported, cuvettes should be held at 37° C. throughout the assay.
4. Begin each assay by adding a small amount (<3% of the final volume) of HIV-PR-containing solution diluted tin the Assay Buffer.
5. Measure the initial rate of cleavage of fluorogenic substrate by monitoring the increase in fluorescence signal at 490 nm for 5-8 min at 37° C.
(§1) The apparent IC50 and IC50 values reported below in Table 25 were determined using the assays of Example 34 and 35, respectively. The values are indicated as follows: +=10-50 μM, ++2-10 μM, and +++<2 μM.

HIV IIIB = assay: XTT Cell Culture Assay, cells infected with HIV IIIB (Example 35); assay type: cell-based; conditions: read-out: Cell Culture IC50
Experimental: The method of Weislow, O. S.; Kiser, R.; Fine, D. L.; Bader, J.; Shoemaker, R. H.; and Boyd, M. R.; J. Nat. Cancer Institute, 1989, 81(8) 577-586 was applied with the following minor modifications: Infection of cells with HIV IIIB was performed without polybrene. Cells were distributed to Microtiter wells containing the compound of the invention 4 h after infection with HIV IIIB. 2×XTT was added at 5-6 days post infection. 20 μl 2% Triton X-100 was added 1 hour after XTT addition.
1. Add 4 ml of XTT (5 mg/ml) to 8 ml of Deficient RPMI medium (no phenol red, no serum). Mix briefly at 45° C. to dissolve XTT.
2. Add 800 μl of PMS (0.2 mg/ml) to XTT/RPMI mixture.
3. Remove 100 μl of cell free media from each well of a 96 well plate and replace with 100 μl of the XTT/PMS mixture.
4. Incubate at 37° C. for 1.5-2 h.
5. Read absorbance at 450 nm. Absorbance values are directly proportional to cell viability.
as §1

[1] = fluorogenic peptide substrate, 37° C., pH 4.7, read-out: Apparent Enzyme IC50
[2] = Human immunodeficiency virus 1, IIIB, HIV IIIB infected cells, XTT at 5-6 days post infection
[3] = HIV IIIB infected cells, XTT at 5-6 days post infection
[4] = Human immunodeficiency virus 1, IIIB
[5] = Apparent Enzyme IC50, fluorogenic peptide substrate, 37° C., pH 4.7

| Structure (SMILES) | IC50 (HIV protease; [1]) [nM] | IC50 (HIV IIIB; [2]) [nM] | also measured |
| --- | --- | --- | --- |
| O[C@@H]1[C@@H](O)[C@@H](OCc2ccccc2)CS[C@H](Cc2ccccc2)[C@@H]1OCc1ccccc1 [107/2] | 10000 to 50000 | – | – |
| [O-][S@+]1C[C@H](OCc2ccccc2)[C@H](O)[C@@H](O)[C@@H](OCc2ccccc2)[C@H]1Cc1ccccc1 [107/3] | 2000 to 10000 | – | – |
| [O-][S@@+]1C[C@H](OCc2ccccc2)[C@H](O)[C@@H](O)[C@@H](OCc2ccccc2)[C@H]1Cc1ccccc1 [107/4] | 2000 to 10000 | 10000 to 50000 | – |
| O=S1(=O)C[C@H](OCc2ccccc2)[C@H](O)[C@@H](O)[C@@H](OCc2ccccc2)[C@H]1Cc1ccccc1 [107/5] | < 2000 | 10000 to 50000 | – |
| N#Cc1ccccc1O[C@@H]1[C@H](O)[C@@H](O)[C@@H](Oc2ccccc2C#N)CS(=O)(=O)[C@@H]1Cc1ccccc1 [107/10] | 2000 to 10000 | – | – |
| N#Cc1ccc(O[C@@H]2[C@H](O)[C@@H](O)[C@@H](Oc3ccc(C#N)cc3)CS[C@@H]2Cc2ccccc2)cc1 [107/12] | 2000 to 10000 | – | – |
| N#Cc1ccc(O[C@@H]2[C@H](O)[C@@H](O)[C@@H](Oc3ccc(C#N)cc3)CS(=O)(=O)[C@@H]2Cc2ccccc2)cc1 [107/15] | 2000 to 10000 | – | – |
| [O-][S+]1[C@H](Cc2ccccc2)[C@H](OCc2ccccc2)[C@H](O)[C@@H](O)[C@@H](OCc2ccccc2)[C@H]1Cc1ccccc1 (stereo partly shown) [108/4] | < 2000 | – | IC50 (HIV IIIB; [3]): < 2000 nM |
| O=S1(=O)[C@H](Cc2ccccc2)[C@H](OCc2ccccc2)[C@H](O)[C@@H](O)[C@@H](OCc2ccccc2)[C@H]1Cc1ccccc1 [108/5] | – | < 2000 | – |
| [O-][S@@+]1[C@H](Cc2ccccc2)[C@H](OCc2ccccc2)[C@H](O)[C@@H](O)[C@@H](OCc2ccccc2)[C@@H]1Cc1ccccc1 [108/17] | 2000 to 10000 | 2000 to 10000 | – |
| O=S1(=O)[C@H](Cc2ccccc2)[C@H](OCc2ccccc2)[C@H](O)[C@@H](O)[C@@H](OCc2ccccc2)[C@@H]1Cc1ccccc1 [108/18] | < 2000 | 10000 to 50000 | – |
| O=S1(=O)[C@H](Cc2ccccc2)[C@H](OCc2ccccc2)[C@H](O)[C@@H](O)[C@H](OCc2ccccc2)[C@H]1Cc1ccccc1 [108/21] | < 2000 | < 2000 | – |
| O=S1(=O)[C@@H](Cc2ccccc2)[C@@H](OCc2ccccc2)[C@@H](O)[C@H](O)[C@H](OCc2ccccc2)[C@@H]1Cc1ccccc1 [108/27] | 10000 to 50000 | 10000 to 50000 | – |
| [O-][S+]1[C@H](Cc2ccccc2)[C@H](OCc2ccccc2)[C@H](O)[C@@H](O)[C@@H](OCc2ccccc2)[C@H]1Cc1ccccc1 (stereo partly shown) [120/3] | < 2000 | – | IC50 (HIV IIIB; [3]): 10000 to 50000 nM |
| CC1(C)O[C@@H]2[C@@H](O1)[C@@H](OCc1ccccn1)[C@@H](Cc1ccccc1)S(=O)(=O)[C@H](Cc1ccccc1)[C@@H]2OCc1ccccn1 [120/6] | < 2000 | 2000 to 10000 | – |
| CC1(C)O[C@@H]2[C@@H](O1)[C@@H](OCc1cccc[n+]1[O-])[C@@H](Cc1ccccc1)S(=O)(=O)[C@H](Cc1ccccc1)[C@@H]2OCc1ccccn1 [120/7] | < 2000 | 2000 to 10000 | – |
| O=S1(=O)[C@H](Cc2ccccc2)[C@H](OCc2cccnc2)[C@H](O)[C@@H](O)[C@@H](OCc2cccnc2)[C@H]1Cc1ccccc1 [120/15] | < 2000 | < 2000 | – |
| O=[N+]([O-])c1cccc(CO[C@@H]2[C@H](O)[C@@H](O)[C@@H](OCc3cccc([N+](=O)[O-])c3)[C@@H](Cc3ccccc3)[S+]([O-])[C@@H]2Cc2ccccc2)c1 (stereo partly shown) [120/44] | – | – | IC50 (HIV IIIB; [4]): < 2000 nM; IC50 (HIV protease; [5]): < 2000 nM |
| O=[N+]([O-])c1cccc(CO[C@@H]2[C@H](O)[C@@H](O)[C@@H](OCc3cccc([N+](=O)[O-])c3)[C@@H](Cc3ccccc3)S(=O)(=O)[C@@H]2Cc2ccccc2)c1 [120/45] | – | – | IC50 (HIV IIIB; [4]): < 2000 nM; IC50 (HIV protease; [5]): < 2000 nM |

More lines, main results first:

| IC50 (HIV protease; [1]) [nM] | IC50 (HIV IIIB; [2]) [nM] | Structure (SMILES) | also measured |
| --- | --- | --- | --- |
| < 2000 | < 2000 | O=S1(=O)[C@H](Cc2ccccc2)[C@H](OCc2cccnc2)[C@H](O)[C@@H](O)[C@@H](OCc2ccc[n+]([O-])c2)[C@H]1Cc1ccccc1 [120/16] | – |
| < 2000 | – | O=S1(=O)[C@H](Cc2ccccc2)[C@H](OCc2ccncc2)[C@H](O)[C@@H](O)[C@@H](OCc2ccncc2)[C@H]1Cc1ccccc1 [120/19] | – |
| < 2000 | 10000 to 50000 | Cc1nc(CO[C@@H]2[C@H](O)[C@@H](O)[C@@H](OCc3csc(C)n3)[C@@H](Cc3ccccc3)S(=O)(=O)[C@@H]2Cc2ccccc2)cs1 [120/22] | – |
| – | < 2000 | O=S1(=O)[C@H](Cc2ccccc2)[C@H](OCc2cncs2)[C@H](O)[C@@H](O)[C@@H](OCc2cncs2)[C@H]1Cc1ccccc1 [120/25] | IC50 (HIV protease; read-out: Apparent Enzyme IC50): < 2000 nM |
| < 2000 | – | O=S1(=O)[C@H](Cc2ccccc2)[C@H](Oc2ccccn2)[C@H](O)[C@@H](O)[C@@H](Oc2ccccn2)[C@H]1Cc1ccccc1 [120/28] | – |
| < 2000 | < 2000 | Cc1cccc(CO[C@@H]2[C@H](O)[C@@H](O)[C@@H](OCc3cccc(C)c3)[C@@H](Cc3ccccc3)S(=O)(=O)[C@@H]2Cc2ccccc2)c1 [120/31] | – |
| < 2000 | < 2000 | COc1cccc(CO[C@@H]2[C@H](O)[C@@H](O)[C@@H](OCc3cccc(OC)c3)[C@@H](Cc3ccccc3)S(=O)(=O)[C@@H]2Cc2ccccc2)c1 [120/34] | – |
| < 2000 | – | O=S1(=O)[C@H](Cc2ccccc2)[C@H](OCc2cccc(Br)c2)[C@H](O)[C@@H](O)[C@@H](OCc2cccc(Br)c2)[C@H]1Cc1ccccc1 [120/37] | – |
| < 2000 | – | O=S1(=O)[C@H](Cc2ccccc2)[C@H](OCc2cccc(OCc3ccccc3)c2)[C@H](O)[C@@H](O)[C@@H](OCc2cccc(OCc3ccccc3)c2)[C@H]1Cc1ccccc1 [120/40] | – |
| < 2000 | – | O=S1(=O)[C@H](Cc2ccccc2)[C@H](OCc2cccc(O)c2)[C@H](O)[C@@H](O)[C@@H](OCc2cccc(O)c2)[C@H]1Cc1ccccc1 [120/41] | – |
| < 2000 | < 2000 | Nc1cccc(CO[C@@H]2[C@H](O)[C@@H](O)[C@@H](OCc3cccc(N)c3)[C@@H](Cc3ccccc3)S(=O)(=O)[C@@H]2Cc2ccccc2)c1 [120/46] | – |
